According to the supplement of paper PMC5579334:

Legend:
[1] = system: HS-PSS; assay: relative IC50 (inflection point of fitted dose-response curve, CellTox-Green cytotoxicity, 72 h; top asymptote may be below 50%); higher = less potent
Procedure, shortened: (§1)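 MPNST cell lines and primary human Schwann cells were incubated 72 h at 37 °C in 384-well plates holding five 10-fold compound dilutions. CellTox-Green was added before seeding at a final 1:1000 dilution and reported fluorescence from DNA released by disrupted cells. Signals were scaled to vehicle and positive-control wells, and cultures failing plate quality control were dropped. Drug sensitivity score and relative IC50 come from four-parameter logistic fits, with IC50 censored at the top concentration.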

[2] = system: HS-Sch-2; assay: % inhibition of CellTiter-Glo viability at highest tested concentration (72 h), relative to DMSO and benzethonium chloride controls; higher = more inhibition
Procedure, shortened: (§2)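 MPNST cell lines and primary human Schwann cells (750–1000 cells per well) went into 384-well plates preprinted with each compound at five concentrations in 10-fold steps. Plates were incubated 72 h at 37 °C, 5% CO2. Viability was read as CellTiter-Glo ATP luminescence, scaled between vehicle and positive-control wells, with duplicates averaged where present. Percent inhibition is at the top concentration; drug sensitivity score and relative IC50 (censored at top concentration) come from four-parameter logistic fits.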

[3] = system: YST-1; assay: as above
Procedure, shortened: as §2

[4] = system: HS-PSS; assay: as above
Procedure, shortened: as §2

[5] = system: HS-Sch-2; assay: drug sensitivity score (DSS, CellTiter-Glo viability, 72 h) (DSS (dimensionless)); higher = more sensitive; extreme values may be limits of the assay
Procedure, shortened: as §2

[6] = system: YST-1; assay: as above
Procedure, shortened: as §2

[7] = system: HS-PSS; assay: as above
Procedure, shortened: as §2

[8] = system: HS-PSS; assay: drug sensitivity score (DSS, CellTox-Green cytotoxicity, 72 h) (DSS (dimensionless)); higher = more cytotoxic; extreme values may be limits of the assay
Procedure, shortened: as §1

Row | SMILES | relative IC50 [1] | % inhibition [2] | % inhibition [3] | % inhibition [4] | drug sensitivity score [5] | drug sensitivity score [6] | drug sensitivity score [7] | drug sensitivity score [8]
1 | C=CC(=O)Nc1cccc(Nc2nc(Nc3ccc(OCCOC)cc3)ncc2F)c1 [Spebrutinib] | > 1 µM | – | – | – | – | – | – | –
2 | C#Cc1cccc(Nc2ncnc3cc4c(cc23)OCCOCCOCCO4)c1 [Icotinib] | > 10 µM | – | – | – | – | – | – | –
3 | Cn1cc(-c2ccc3nnc(C(F)(F)c4ccc5ncccc5c4)n3n2)cn1 | > 10 µM | – | – | – | – | – | – | –
4 | CC(C)Oc1ccc(C(=O)N[C@H](CNC(=O)CN(C)C)Cc2ccc(-c3cn4cccc([C@H](C)O)c4n3)cc2)cc1Cl (max concentration tested 10000 nM) | – | 95.2% | 62% | 66.7% | 24.1 | 19.5 | 8.56 | 1.48
5 | C[C@@H]1CN(Cc2ccc(F)cc2)[C@@H](C)CN1C(=O)c1cc2c(C(=O)C(=O)N(C)C)cn(C)c2cc1Cl [Talmapimod] (max concentration tested 10000 nM) | – | -10% | 37.4% | 13.9% | 0 | 6.19 | 0.11 | 0
6 | CC[C@H](C)C(=O)O[C@H]1C[C@@H](C)C=C2C=C[C@H](C)[C@H](CC[C@@H]3C[C@@H](O)CC(=O)O3)[C@H]21 [Lovastatin] (max concentration tested 10000 nM) | – | -6.45% | 0.71% | -5.9% | 0 | 0 | 0 | 0
7 | NCCNc1ccc(NCCN)c2c1C(=O)c1ccncc1C2=O [Pixantrone] (max concentration tested 10000 nM) | – | 50.7% | 54.6% | 77.4% | 2.43 | 2.81 | 4.51 | 0
8 | C[C@H](Nc1ncnc2nc[nH]c12)c1cc2cccc(Cl)c2c(=O)n1-c1ccccc1 [Duvelisib] (max concentration tested 500 nM) | – | 13.6% | 19.5% | -0.01% | 0.22 | 0.82 | 0 | 0.21
9 | CCn1c(=O)c(-c2cc[nH]n2)cc2c(C)nc(N)nc21 [Voxtalisib] (max concentration tested 10000 nM) | – | 64.5% | 86.5% | 48.4% | 4.83 | 9.29 | 3.33 | 0
10 | Cc1ccc(C(=O)Nc2ccc(Oc3cc4cnn(C)c4cc3-c3cn[nH]c3)c(F)c2)c(=O)n1-c1ccc(F)cc1 [Merestinib] (max concentration tested 1000 nM) | – | 31% | 25.2% | 46.7% | 1.13 | 1.74 | 3.07 | 0
11 | Cc1cccc(CC(=O)N2CCc3c2ccc(-c2cn(C)c4ncnc(N)c24)c3F)n1 (max concentration tested 2500 nM) | – | 16.1% | 14.4% | 29.6% | 0.16 | 0.36 | 0.96 | 0
12 | CC[C@@]1(O)C(=O)OCc2c1cc1n(c2=O)Cc2cc3ccccc3nc2-1 [Camptothecin] (max concentration tested 5000 nM) | – | 99.9% | 99.6% | 93.1% | 22.2 | 23.6 | 14.9 | 10.2
13 | CC(C)NC[C@@H](C(=O)N1CCN(c2ncnc3c2[C@H](C)C[C@H]3O)CC1)c1ccc(Cl)cc1 [Ipatasertib] (max concentration tested 10000 nM) | – | 39.1% | 55.2% | 37.1% | 4.24 | 6.9 | 3.83 | 0.28
14 | COc1c(OCCCN2CCOCC2)ccc2c1N=C(NC(=O)c1cnc(N)nc1)N1CCN=C21 [Copanlisib] (max concentration tested 1000 nM) | – | 70.5% | 92.5% | 44% | 7.87 | 17.5 | 1.69 | 0
15 | CCN1CCN(Cc2ccc(-c3cc4c(N[C@H](C)c5ccccc5)ncnc4[nH]3)cc2)CC1 [NVP-AEE788] (max concentration tested 2500 nM) | – | 2.96% | 22.3% | 22.7% | 0 | 1.87 | 1.04 | 0
16 | CN(C)Cc1ccc(S(=O)(=O)n2ccc(/C=C/C(=O)NO)c2)cc1 [Resminostat] (max concentration tested 10000 nM) | – | 100% | 101% | 84.1% | 7.57 | 13.8 | 6.36 | 2.12
17 | Cc1nc(-c2cn3c(n2)-c2ccc(-c4cnn(C(C)(C)C(N)=O)c4)cc2OCC3)n(C(C)C)n1 [Taselisib] (max concentration tested 1000 nM) | – | 18.1% | 66.6% | 26.4% | 0.87 | 11.9 | 0.7 | 0
18 | CNC(=O)CN1CCC(Oc2cc3c(Nc4cccc(Cl)c4F)ncnc3cc2OC)CC1 [Sapitinib] (max concentration tested 1000 nM) | – | 11.1% | 15.3% | 9.33% | 0.17 | 0.48 | 0 | 0
19 | COC(=O)N[C@@H](C)CNc1nccc(-c2cn(C(C)C)nc2-c2cc(Cl)cc(NS(C)(=O)=O)c2F)n1 [Encorafenib] (max concentration tested 1000 nM) | – | 14.4% | 3.93% | 14% | 0.12 | 0 | 2.1 | 0

Row | SMILES | relative IC50 [1] | % inhibition [2] | % inhibition [3] | % inhibition [4] | drug sensitivity score [5] | drug sensitivity score [6] | drug sensitivity score [7] | drug sensitivity score [8]
20 | CS(=O)(=O)N1CCc2c(-c3cnc(N)nc3)nc(N3CCOCC3)nc21 (max concentration tested 10000 nM) | – | 32% | 77.8% | 42.7% | 3.35 | 14.4 | 4.81 | 0
21 | O=C(O)c1ccc(CN2CCC(CN[C@@H]3C[C@H]3c3ccccc3)CC2)cc1 (max concentration tested 10000 nM) | – | -4.91% | -3.86% | 2.06% | 0 | 0 | 0 | 0
22 | CC(C)CC(=O)Nc1n[nH]c2c1CN(C(=O)C1CCN(C)CC1)C2(C)C (max concentration tested 10000 nM) | – | 101% | 99.8% | 83.7% | 10.2 | 11.8 | 11.5 | 2.57
23 | O=C(Nc1nc2ccccc2n1CCN1CCOCC1)c1cccc([N+](=O)[O-])c1 [IRAK1/4 inhibitor] (max concentration tested 25000 nM) | – | -2.86% | 6.78% | 3.76% | 0 | 0 | 0 | 0
24 | Cc1ncc(-c2ccnc(Nc3ccc(S(C)(=O)=O)cc3)n2)n1C(C)C [AZD-5438] (max concentration tested 10000 nM) | – | 100% | 99.2% | 72% | 8.28 | 9.62 | 12.4 | 0.3
25 | CC1(C)CCC(CN2CCN(c3ccc(C(=O)NS(=O)(=O)c4ccc(NCC5CCOCC5)c([N+](=O)[O-])c4)c(Oc4cnc5[nH]ccc5c4)c3)CC2)=C(c2ccc(Cl)cc2)C1 [Venetoclax] (max concentration tested 1000 nM) | – | 0.97% | 16.4% | -9.6% | 0 | 0.21 | 0 | 0
26 | O=C1c2ccccc2-c2n[nH]c3cccc1c23 (max concentration tested 100000 nM) | – | 27.4% | 34.2% | 43.2% | 2.29 | 2.42 | 4.26 | 0.2
27 | N#Cc1ccc2[nH]c(O)c(-c3ccc(CN4CCOCC4)cn3)c2c1 [AZD-1080] (max concentration tested 10000 nM) | – | 77.1% | 4.49% | 43.5% | 3.74 | 0 | 2.89 | 0
28 | Nc1cccc2c1CN(C1CCC(=O)NC1=O)C2=O (stereo unspecified) [Lenalidomide] (max concentration tested 100000 nM) | – | 15.6% | 20.7% | 6.75% | 0.18 | 1.7 | 0 | 0
29 | CCNC(=O)C[C@@H]1N=C(c2ccc(Cl)cc2)c2cc(OC)ccc2-n2c(C)nnc21 (max concentration tested 10000 nM) | – | 63.1% | 65.3% | 58.4% | 8.49 | 10.2 | 7.28 | 0
30 | N[C@@H]1CCCN(c2c(/C=C3\SC(=O)NC3=O)cccc2-c2ccccc2)C1 [AZD1208] (max concentration tested 10000 nM) | – | -3.67% | 38.7% | -5.48% | 0 | 7.54 | 0 | 0
31 | O=C(c1ccc(F)c(F)c1Nc1ccc(I)cc1F)N1CC(O)([C@@H]2CCCCN2)C1 [Cobimetinib] (max concentration tested 1000 nM) | – | 69.5% | -5.92% | 49.3% | 4.02 | 0 | 4.46 | 0.01
32 | Cc1c(NC(=O)OC[C@@H]2COCCN2)cn2ncnc(Nc3ccc4c(cnn4Cc4cccc(F)c4)c3)c12 (max concentration tested 10000 nM) | – | 44.4% | 26.8% | 71.3% | 3.4 | 2.68 | 5.43 | 0.6
33 | CCCCC/C=C/C=C1/C(=O)C=C[C@@H]1C/C=C\CCCC(=O)O [15D-PGJ2] (max concentration tested 3000 nM) | – | 16.9% | -5.83% | 3.17% | 0.58 | 0 | 0 | 0
34 | CCN(c1cc(-c2ccc(CN3CCOCC3)cc2)cc(C(=O)NCc2c(C)cc(C)[nH]c2=O)c1C)C1CCOCC1 [Tazemetostat] (max concentration tested 10000 nM) | – | 12.6% | 0.37% | 10.9% | 0.07 | 0 | 0.52 | 0
35 | CC(C)(O)CC(=O)NCCn1ccc2ncnc(Nc3ccc(Oc4cccc(C(F)(F)F)c4)c(Cl)c3)c21 [TAK-285] (max concentration tested 2500 nM) | – | -0.95% | 6.24% | -2.72% | 0 | 0 | 0.89 | 0
36 | Cc1cc(C(=O)NOCCO)c(Nc2ccc(I)cc2F)n(C)c1=O [AZD-8330] (max concentration tested 10000 nM) | – | 53.5% | 3.34% | 51.1% | 11.6 | 0 | 8.85 | 0
37 | O=C1NC(=O)/C(=C/c2ccc3nccc(-c4ccncc4)c3c2)S1 (max concentration tested 10000 nM) | – | 37.8% | 86.6% | 49.6% | 1.71 | 9.37 | 2.69 | 0
